Article PMC11997307, “Rat Sarcoma (RAS)-Protein-Targeting Synthetic Cell-Penetrating Peptide as an Anticancer Biomaterial” (Biomaterials Research, 2025)
Where two headings read alike, the source gives them in different places.

How the values were obtained:
[1] = tested on: MDA-MB-231 cell-derived tumors; type: in vivo
Protocol: Fertilized white leghorn eggs, sourced from the Société Française de Production Avicole (St. Brieuc, France), were incubated for 9 d at 37.5 °C with 50% relative humidity. On embryonic day 9 (E9), a small hole was drilled into the air sac to lower the chorioallantoic membrane (CAM), and a 1-cm^2 window was created in the eggshell above the CAM. The MDA-MB-231 cell line was cultivated in DMEM supplemented with 10% FBS (and 1% penicillin/streptomycin). Cells (at 90% confluency, passages 30 to 32) were detached from culture plates with trypsin/EDTA, rinsed with complete medium, and suspended in graft medium. An inoculum of 1 × 10^6 cells was added onto the CAM of each egg. The eggs were randomly assigned to groups. On day 10 (E10), tumors were detectable. They were then treated every 2 d for 9 d (E11, E13, E15, and E17); specifically, 100 μl of the vehicle or 100 μl of the peptide (10 mg/kg) was added dropwise to the tumor. Angiogenesis was estimated by calculating the number of vessels on the CAM that irrigated tumors. Because tumors generated from MDA-MB-231 cells are hemorrhagic, images were obtained at E16 (2 d before collection to ensure that all vessels in the CAM were visible). On day 18 (E18), the upper portion of the CAM containing the tumor was removed, washed in PBS, and then directly transferred to paraformaldehyde (for 48 h for fixation). The tumors were then carefully removed from normal CAM tissue and weighed. The extent of treatment toxicity was evaluated according to the number of dead embryos after 9 d of treatment and observation of visible macroscopic abnormalities at the end point.
In parallel, a 1-cm^2 portion of the lower CAM was collected to evaluate the number of metastatic cells. Genomic DNA was extracted from the CAM and analyzed for human Alu sequences via quantitative polymerase chain reaction (qPCR) with specific primers. Calculation of the Cq for each sample, the mean Cq, and the number of metastases for each group were performed with the Bio-Rad CFX Maestro software (Bio-Rad, Hercules, CA, USA). According to the real-time PCR data markup language data standard (http://www.rdml.org), Cq is defined as the cycle at which the amplification curve […] (fractional PCR cycles). The Cq value is obtained in the exponential phase, where the qPCR curve is linear. This is the basic result of qPCR: lower Cq values indicate higher initial copy numbers of the target gene. When the PCR efficiency is 100%, a difference of 1 cycle between 2 reactions means that there are 2 times more copies (genes) in the reaction with the lower Cq value than in the reaction with the higher Cq value. One-way analysis of variance (ANOVA) with post hoc tests was performed on the data.
On day 18 (E18), 5 tumor samples per group (different from the tumor samples used for tumor weight determination) were collected to evaluate the infiltration of immune cells. Each tumor sample was cut to a small size (<0.5 cm^3) and kept in 5 volumes of RNAlater solution at 4 °C. The extracted RNA was analyzed via reverse transcription qPCR with specific primers for chicken CD3 and CD4 sequences. The Bio-Rad CFX Maestro software was used to calculate the Cq values for each sample, determine the mean Cq, and quantify the relative expression of immune cell markers in each group.
Three tumors per group were harvested and fixed in 4% formaldehyde, washed, and then stored in 70% ethanol until needed for experiments. The tumors were cut to a standard size and placed in an embedding cassette. The paraffin blocks were sectioned at a thickness of approximately 3 to 5 μm. The cells were placed on a glass slide, stained with hematoxylin and eosin (H&E) and Ki-67, and covered in an automated machine. Pictures were taken via a microscope (Olympus BX60, serial no. 7D04032, Shinjuku, Japan) at a magnification of ×4 and a microscope camera (Olympus DP73, serial no. OH05504, Shinjuku, Japan). […]

[2] = tested on: MDA-MB-231 cell-derived tumors; experiment: Mouse xenograft tumor model; type: in vivo; settings: BALB/c nude mice, MDA-MB-231 xenograft
Protocol: Female BALB/c nude mice (aged 5 to 6 weeks) were utilized in these studies to establish breast cancer xenograft models. These mice were obtained from Orient Bio, Inc. (Seongnam, Republic of Korea) and maintained in the Division of Laboratory Animal Resources animal facility throughout the experimental period. The selection, management, and experimental protocols, as well as the preparation of the animals, were conducted in accordance with the guidelines approved by the Institutional Animal Care and Use Committee of Seoul National University. All experiments adhered to the animal protocol approved by the Institutional Animal Care and Use Committee at Seoul National University (protocol number: SNU-171026-1-5). MDA-MB-231 cells were cultured until they reached 80% to 90% confluency and then harvested and prepared as suspensions (3 × 10^6 cells/100 μl in PBS) mixed with Matrigel. These cell suspensions were injected into the right hind flanks of nude mice (n = 8). […] The control mice received PBS injections. The mice were weighed, and their tumor volumes were measured 3 times per week using Vernier calipers, starting on the first day of treatment. The tumor volume was calculated using the formula tumor volume = A × B^2 × 0.52, where A represents the longest tumor diameter and B represents the shortest diameter. After 6 weeks, the mice were euthanized in a sealed chamber with CO2 gas for 5 to 10 min, and their solid tumors were harvested and fixed in 4% paraformaldehyde for subsequent analysis via immunohistochemistry (IHC).
The tissues were fixed in 4% formalin before being embedded in paraffin. Sections with a thickness of 4 μm were deparaffinized with xylene and then rehydrated with a graded series of ethanol solutions, ranging from 95% to 100%. […] Antibody binding was detected through incubation with EnVision FLEX/horseradish peroxidase (Dako) for 30 min. […] The intensity and distribution of Ki-67-specific immunostaining were assessed using a Leica DM6B digital light fluorescence microscope following hematoxylin counterstaining.

[3] = chicken egg CAM tumors, 10 mg/kg, E18, 5 tumors per group, normalized to GAPDH
[4] = 10 mg/kg intraperitoneal, 6 weeks

Compound: C[C@@H](O)[C@H](NC(=O)[C@H](CO)NC(=O)[C@H](CS)NC(=O)[C@H](CCCCN)NC(=O)CN)C(=O)N[C@@H](CCCNC(=N)N)C(=O)NCC(=O)N[C@@H](CCCNC(=N)N)C(=O)N[C@@H](CCCCN)C(=O)N[C@@H](CS)C(=O)N[C@@H](CS)C(=O)N[C@@H](CCCNC(=N)N)C(=O)N[C@@H](CCCNC(=N)N)C(=O)N[C@@H](CCCCN)C(=O)N[C@@H](CCCCN)C(N)=O [RBP]
- Ki-67 expression in tumor sections (IHC) ([1]; chicken egg CAM tumors, 10 mg/kg): reduced Ki-67 expression
- infiltration of CD3-positive immune cells in tumors (chicken CD3 mRNA, RT-qPCR) [1, 3]: increased infiltration
- infiltration of CD4-positive immune cells in tumors (chicken CD4 mRNA, RT-qPCR) [1, 3]: increased infiltration
- formation of microvessels ([1]; chicken egg CAM, 10 mg/kg, E16): significantly suppressed
- metastasis of MDA-MB-231 cells to lower CAM (human Alu qPCR) ([1]; chicken egg CAM, 10 mg/kg, E18, P < 0.01 vs Neg Ctrl): significantly inhibited
- number of vessels reaching and feeding the tumors ([1]; chicken egg CAM, 10 mg/kg, images at E16, P < 0.05 vs Neg Ctrl): significantly reduced
- average tumor weight ([1]; chicken egg CAM, MDA-MB-231, 10 mg/kg at E11, E13, E15, E17, collected E18, mean ± SD, P < 0.01 vs Neg Ctrl (54.40 ± 12.22 mg)): 22.10 ± 5.86 mg
- embryo mortality compared to negative control ([1]; in vivo, 10 mg/kg): no statistically significant difference
- tumor growth vs not-treated group ([2]; 10 mg/kg intraperitoneal 3 times per week for 6 weeks, n = 8, P < 0.05): significant reduction
- Ki-67 expression in tumor sections (IHC) [2, 4]: decreased Ki-67 expression
- immune cell infiltration in tumors (H&E) [2, 4]: increased immune cell infiltration
